Results from US9149475B2, “Protein kinase C inhibitors and uses thereof” (Rigel Pharmaceuticals, Inc., priority 2009, dated 2015).
Where a name gives a salt, the structure may show the parent alone.

Test system: Human primary T cells
Assay: IL-2 ELISA, human primary T cell, anti-CD3+CD28+ (whole cell assay)
Assay type: cell-based
Settings: human primary T cells stimulated with anti-CD3 + anti-CD28, 24 hours
Outline: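 PBMC-derived T cells, pre-expanded on αCD3/αCD28 with IL-2 and then washed free of IL-2, were preincubated with compound for 1 hr at 37° C (100,000 cells/well). They were then stimulated on 1 μg/ml αCD3 plus 5 μg/ml αCD28 for 24 h, and supernatant IL-2 was measured by ELISA. The counter-assay used 0.5 ng/ml PMA plus 0.1 μM ionomycin instead.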

CN1C(C)(C)CC(Nc2nc(Nc3ccc(OC4CCN(CCF)CC4)c(Cl)c3)ncc2F)CC1(C)C [III-97, N2-(3-chloro-4-(1-(2-fluoroethyl)piperidin-4-yloxy)phenyl)-5-fluoro-N4-(1,2,2,6,6-pentamethylpiperidin-4-yl)pyrimidine-2,4-diamine]
IC50 (Homo sapiens, T-cell, 24 h): < 250 nM

CC(C)N1CCC(Oc2ccc(Nc3ncc(F)c(NC4CC(C)(C)NC(C)(C)C4)n3)cc2Cl)CC1 [III-98, N2-(3-chloro-4-(1-isopropylpiperidin-4-yloxy)phenyl)-5-fluoro-N4-(2,2,6,6-tetramethylpiperidin-4-yl)pyrimidine-2,4-diamine]
IC50 (Homo sapiens, T-cell, 24 h): < 250 nM

CN1C(C)(C)CC(Nc2nc(Nc3ccc(O[C@H]4CCOC4)c(OC(F)F)c3)ncc2F)CC1(C)C [III-99, (S)—N2-(3-(difluoromethoxy)-4-(tetrahydrofuran-3-yloxy)phenyl)-5-fluoro-N4-(1,2,2,6,6-pentamethylpiperidin-4-yl)pyrimidine-2,4-diamine]
IC50 (Homo sapiens, T-cell, 24 h): < 250 nM

CC1(C)CC(Nc2nc(Nc3ccc(O[C@H]4CCOC4)c(OC(F)F)c3)ncc2F)CC(C)(C)N1 [III-100, (S)—N2-(3-(difluoromethoxy)-4-(tetrahydrofuran-3-yloxy)phenyl)-5-fluoro-N4-(2,2,6,6-tetramethylpiperidin-4-yl)pyrimidine-2,4-diamine]
IC50 (Homo sapiens, T-cell, 24 h): 250 to 500 nM

CC(C)N1CCC(Oc2ccc(Nc3ncc(F)c(NC4CC(C)(C)N(C)C(C)(C)C4)n3)cc2C(F)(F)F)CC1 [III-101, 5-fluoro-N2-(4-(1-isopropylpiperidin-4-yloxy)-3-(trifluoromethyl)phenyl)-N4-(1,2,2,6,6-pentamethylpiperidin-4-yl)pyrimidine-2,4-diamine]
IC50 (Homo sapiens, T-cell, 24 h): < 250 nM

CC(C)N1CCC(Oc2ccc(Nc3ncc(F)c(NC4CC(C)(C)NC(C)(C)C4)n3)cc2C(F)(F)F)CC1 [III-102, 5-fluoro-N2-(4-(1-isopropylpiperidin-4-yloxy)-3-(trifluoromethyl)phenyl)-N4-(2,2,6,6-tetramethylpiperidin-4-yl)pyrimidine-2,4-diamine]
IC50 (Homo sapiens, T-cell, 24 h): 250 to 500 nM

CC(C)N1CCC(Oc2ccc(Nc3ncc(F)c(NC4CC(C)(C)N(C)C(C)(C)C4)n3)cc2OC(F)F)C(F)C1 (stereo not drawn) [III-103, N2-(3-(difluoromethoxy)-4-(3-fluoro-1-isopropylpiperidin-4-yloxy)phenyl)-5-fluoro-N4-(1,2,2,6,6-pentamethylpiperidin-4-yl)pyrimidine-2,4-diamine trifluoroacetate salt]
IC50 (Homo sapiens, T-cell, 24 h): 250 to 500 nM

CC(C)N1CCC(Oc2ccc(Nc3ncc(F)c(NC4CC(C)(C)NC(C)(C)C4)n3)cc2OC(F)F)C(F)C1 (stereo not drawn) [III-104, N2-(3-(difluoromethoxy)-4-(3-fluoro-1-isopropylpiperidin-4-yloxy)phenyl)-5-fluoro-N4-(2,2,6,6-tetramethylpiperidin-4-yl)pyrimidine-2,4-diamine trifluoroacetate salt]
IC50 (Homo sapiens, T-cell, 24 h): 500 to 1000 nM

CC(C)N1CCC(Oc2ccc(Nc3ncc(F)c(NC4CC(C)(C)N(C)C(C)(C)C4)n3)cc2OC(F)F)C(F)C1 (stereo not drawn) [III-105, N2-(3-(difluoromethoxy)-4-(3-fluoro-1-isopropylpiperidin-4-yloxy)phenyl)-5-fluoro-N4-(1,2,2,6,6-pentamethylpiperidin-4-yl)pyrimidine-2,4-diamine]
IC50: < 250 nM

CC(C)N1CCC(Oc2ccc(Nc3ncc(F)c(NC4CC(C)(C)NC(C)(C)C4)n3)cc2OC(F)F)C(F)C1 (stereo not drawn) [III-106, N2-(3-(difluoromethoxy)-4-(3-fluoro-1-isopropylpiperidin-4-yloxy)phenyl)-5-fluoro-N4-(2,2,6,6-tetramethylpiperidin-4-yl)pyrimidine-2,4-diamine]
IC50: < 250 nM

CC(C)N1CCC(Oc2ccc(Nc3ncc(F)c(NC4CC(C)(C)N(C)C(C)(C)C4)n3)cc2OC(F)F)C(F)(F)C1 (stereo not drawn) [III-107, N2-(4-(3,3-difluoro-1-isopropylpiperidin-4-yloxy)-3-(difluoromethoxy)phenyl)-5-fluoro-N4-(1,2,2,6,6-pentamethylpiperidin-4-yl)pyrimidine-2,4-diamine]
IC50 (Homo sapiens, T-cell, 24 h): 500 to 1000 nM

CC(C)N1CCC(Oc2ccc(Nc3ncc(F)c(NC4CC(C)(C)NC(C)(C)C4)n3)cc2OC(F)F)C(F)(F)C1 (stereo not drawn) [III-108, N2-(4-(3,3-difluoro-1-isopropylpiperidin-4-yloxy)-3-(difluoromethoxy)phenyl)-5-fluoro-N4-(2,2,6,6-tetramethylpiperidin-4-yl)pyrimidine-2,4-diamine]
IC50 (Homo sapiens, T-cell, 24 h): 500 to 1000 nM

CC1(C)CC(Nc2nc(Nc3ccc(OC4CCOCC4)c(F)c3)ncc2F)CC(C)(C)N1 [III-109, 5-fluoro-N2-(3-fluoro-4-(tetrahydro-2H-pyran-4-yloxy)phenyl)-N4-(2,2,6,6-tetramethylpiperidin-4-yl)pyrimidine-2,4-diamine]
IC50 (Homo sapiens, T-cell, 24 h): 500 to 1000 nM

[2H]C([2H])([2H])N1C(C)(C)CC(Nc2nc(Nc3ccc(OC4CCN(C(C)C)CC4)c(OC(F)F)c3)ncc2F)CC1(C)C [III-110, N2-(3-(difluoromethoxy)-4-(1-isopropylpiperidin-4-yloxy)phenyl)-5-fluoro-N4-(1-trideuteromethyl-2,2,6,6-tetramethylpiperidin-4-yl)pyrimidine-2,4-diamine]
IC50 (Homo sapiens, T-cell, 24 h): < 250 nM

[2H]C([2H])([2H])N1C(C)(C)CC(Nc2nc(Nc3ccc(OC4CCN(C(C)C)CC4)c(Cl)c3)ncc2F)CC1(C)C [III-111, N2-(3-(chloro)-4-(1-isopropylpiperidin-4-yloxy)phenyl)-5-fluoro-N4-(1-trideuteromethyl-2,2,6,6-tetramethylpiperidin-4-yl)pyrimidine-2,4-diamine]
IC50 (Homo sapiens, T-cell, 24 h): < 250 nM

[2H]C([2H])([2H])N1C(C)(C)CC(Nc2nc(Nc3ccc(OC4CCN(C(C)C)CC4F)c(OC(F)F)c3)ncc2F)CC1(C)C (stereo not drawn) [III-112, N2-(3-(difluoromethoxy)-4-(3-fluoro-1-isopropylpiperidin-4-yloxy)phenyl)-5-fluoro-N4-(1-trideuteromethyl-2,2,6,6-tetramethylpiperidin-4-yl)pyrimidine-2,4-diamine]
IC50 (Homo sapiens, T-cell, 24 h): 250 to 500 nM

[2H]C([2H])([2H])N1C(C)(C)CC(Nc2nc(Nc3ccc(C)c(-n4cnnn4)c3)ncc2F)CC1(C)C [III-113, 5-fluoro-N2-(4-methyl-3-(1H-tetrazol-1-yl)phenyl)-N4-(1-trideuteromethyl-2,2,6,6-tetramethylpiperidin-4-yl)pyrimidine-2,4-diamine]
IC50 (Homo sapiens, T-cell, 24 h): < 250 nM

[2H]C([2H])([2H])N1C(C)(C)CC(Nc2nc(Nc3cccc(-n4cnnn4)c3)ncc2F)CC1(C)C [III-114, 5-fluoro-N2-(3-(1H-tetrazol-1-yl)phenyl)-N4-(1-trideuteromethyl-2,2,6,6-tetramethylpiperidin-4-yl)pyrimidine-2,4-diamine]
IC50 (Homo sapiens, T-cell, 24 h): < 250 nM

[2H]C([2H])([2H])N1C(C)(C)CC(Nc2nc(Nc3cccc(-n4nnnc4C)c3)ncc2F)CC1(C)C [III-115, 5-fluoro-N2-(3-(5-methyl-1H-tetrazol-1-yl)phenyl)-N4-(1-trideuteromethyl-2,2,6,6-tetramethylpiperidin-4-yl)pyrimidine-2,4-diamine]
IC50 (Homo sapiens, T-cell, 24 h): < 250 nM

CC1(C)CC(Nc2nc(Nc3cc(C4CC4)cc(-n4cnnn4)c3)ncc2F)CC(C)(C)N1 [III-116, N^2-(3-cyclopropyl-5-(1H-tetrazol-1-yl)phenyl)-5-fluoro-N^4(2,2,6,6-tetramethylpiperidin-4-yl)pyrimidine-2,4-diamine]
IC50 (Homo sapiens, T-cell, 24 h): < 250 nM

CN1C(C)(C)CC(Nc2nc(Nc3cc(C4CC4)cc(-n4cnnn4)c3)ncc2F)CC1(C)C [III-117, N^2-(3-cyclopropyl-5-(1H-tetrazol-1-yl)phenyl)-5-fluoro-N^4(1,2,2,6,6-pentamethylpiperidin-4-yl)pyrimidine-2,4-diamine]
IC50 (Homo sapiens, T-cell, 24 h): < 250 nM
